Measurements from patent US10577363B2, “Substituted piperidine compounds” (EPIZYME, INC., priority 2014, dated 2020).

Key:
SMYD3 [1] = biological target: T1, SMYD3 (Homo sapiens (Human), UniProt Q9H7B4); assay: SMYD3 cell assay (Trimethyl-MEKK2 In-Cell Western in 293T/17 cells); assay type: cell-based; conditions: read-out: SMYD3 Cell IC50*
Method in brief: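 In-Cell Western ratio of trimethyl-Lys260 MEKK2 to anti-flag signal; percent inhibition from DMSO and maximum-inhibition controls, IC50 by non-linear regression, triplicates.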

SMYD3 [2] = biological target: T1, SMYD3; assay: SMYD3 biochemical assay (SPA, 3H-SAM methylation of MEKK2 protein substrate); conditions: read-out: SMYD3 Biochem IC50*
Method in brief: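 Tritium incorporation into GST-MEKK2 is counted by scintillation proximity after citric acid bead capture. Native human SMYD3 is preincubated with test compound for 30 min at room temperature at pH 8.0 (Tris-Cl, TCEP, BSG, Tween 20) before 3H-SAM and substrate are added; cold SAM at 100 uM final stops turnover.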

T1 sequence (Q9H7B4 whole entry): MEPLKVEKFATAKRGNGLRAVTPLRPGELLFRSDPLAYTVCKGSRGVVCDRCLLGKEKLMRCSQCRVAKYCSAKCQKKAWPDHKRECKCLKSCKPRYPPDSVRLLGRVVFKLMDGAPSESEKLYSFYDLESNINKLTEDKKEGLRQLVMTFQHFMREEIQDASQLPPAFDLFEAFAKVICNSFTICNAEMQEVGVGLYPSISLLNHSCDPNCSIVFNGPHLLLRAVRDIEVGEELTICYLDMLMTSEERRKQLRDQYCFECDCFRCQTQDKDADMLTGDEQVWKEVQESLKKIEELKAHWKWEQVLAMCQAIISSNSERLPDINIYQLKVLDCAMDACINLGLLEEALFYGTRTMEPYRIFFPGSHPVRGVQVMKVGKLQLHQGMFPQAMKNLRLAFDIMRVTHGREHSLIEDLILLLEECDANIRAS

Row | Structure (SMILES) | IC50 (SMYD3 [1]) [nM] | IC50 (SMYD3 [2]) [nM]
1 | O=C(N[C@H]1C[C@H]2CC[C@@H](C1)N2S(=O)(=O)N1CC2CCC(C1)N2CCCC(F)(F)F)c1cc(C2CC2)on1 [compound 914, 5-cyclopropyl-N-((1R,3r,5S)-8-((8-(4,4,4-trifluorobutyl)-3,8-diazabicyclo[3.2.1]octan-3-yl)sulfonyl)-8-azabicyclo[3.2.1]octan-3-yl)isoxazole-3-carboxamide] | 299 | 22.9
2 | C[C@H]1CN(S(=O)(=O)N2[C@@H]3CC[C@H]2C[C@@H](NC(=O)c2cc(C4CC4)on2)C3)[C@@H](C)CN1 [compound 915, 5-cyclopropyl-N-((1R,3S,5S)-8-(((2S,5S)-2,5-dimethylpiperazin-1-yl)sulfonyl)-8-azabicyclo[3.2.1]octan-3-yl)isoxazole-3-carboxamide] | 231 | 23.2
3 | COCCN(C)C1CCN(S(=O)(=O)N2[C@@H]3CC[C@H]2C[C@@H](NC(=O)c2cc(C4CC4)on2)C3)CC1 [compound 916, 5-cyclopropyl-N-((1R,3r,5S)-8-((4-((2-methoxyethyl)(methyl)amino)piperidin-1-yl)sulfonyl)-8-azabicyclo[3.2.1]octan-3-yl)isoxazole-3-carboxamide] | 247 | 23.3
4 | CN(CCN1CCCC1)C1CCN(S(=O)(=O)N2[C@@H]3CC[C@H]2C[C@@H](NC(=O)c2cc(C4CC4)on2)C3)CC1 [compound 917, 5-cyclopropyl-N-((1R,3r,5S)-8-((4-(methyl(2-(pyrrolidin-1-yl)ethyl)amino)piperidin-1-yl)sulfonyl)-8-azabicyclo[3.2.1]octan-3-yl)isoxazole-3-carboxamide] | 379 | 24.9
5 | O=C(N[C@H]1C[C@H]2CC[C@@H](C1)N2S(=O)(=O)N1CCC(NCCC(F)(F)F)CC1)c1cc(C2CC2)on1 [compound 918, 5-cyclopropyl-N-((1R,3r,5S)-8-((4-((3,3,3-trifluoropropyl)amino)piperidin-1-yl)sulfonyl)-8-azabicyclo[3.2.1]octan-3-yl)isoxazole-3-carboxamide] | 148 | 25
6 | O=C(N[C@H]1C[C@H]2CC[C@@H](C1)N2S(=O)(=O)C[C@@H]1CCCCN1)c1cc(C2CC2)on1 [compound 919, 5-cyclopropyl-N-((1R,3S,5S)-8-((((S)-piperidin-2-yl)methyl)sulfonyl)-8-azabicyclo[3.2.1]octan-3-yl)isoxazole-3-carboxamide] | 243 | 25.4
7 | O=C(N[C@H]1C[C@H]2CC[C@@H](C1)N2S(=O)(=O)[C@H]1CC[C@@H](NCCN2CCOCC2)CC1)c1cc(C2CC2)on1 [compound 920, 5-cyclopropyl-N-((1R,3R,5S)-8-(((1s,4S)-4-((2-morpholinoethyl)amino)cyclohexyl)sulfonyl)-8-azabicyclo[3.2.1]octan-3-yl)isoxazole-3-carboxamide] | 499 | 26.6
8 | CN(CCO)C1CCN(CCS(=O)(=O)N2[C@@H]3CC[C@H]2C[C@@H](NC(=O)c2cc(C4CC4)on2)C3)C1 (stereo partly drawn) [compound 921, 5-cyclopropyl-N-((1R,3r,5S)-8-((2-(3-((2-hydroxyethyl)(methyl)amino)pyrrolidin-1-yl)ethyl)sulfonyl)-8-azabicyclo[3.2.1]octan-3-yl)isoxazole-3-carboxamide] | 373 | 27.7
9 | O=C(N[C@H]1C[C@H]2CC[C@@H](C1)N2S(=O)(=O)N1CCC(NCCN2CCCC2)CC1)c1cc(C2CC2)on1 [compound 922, 5-cyclopropyl-N-((1R,3r,5S)-8-((4-((2-(pyrrolidin-1-yl)ethyl)amino)piperidin-1-yl)sulfonyl)-8-azabicyclo[3.2.1]octan-3-yl)isoxazole-3-carboxamide] | 282 | 28.1
10 | C[C@@H](NC1CCN(S(=O)(=O)N2[C@@H]3CC[C@H]2C[C@@H](NC(=O)c2cc(C4CC4)on2)C3)CC1)c1ccccc1 [compound 923, 5-cyclopropyl-N-((1R,3R,5S)-8-((4-(((R)-1-phenylethyl)amino)piperidin-1-yl)sulfonyl)-8-azabicyclo[3.2.1]octan-3-yl)isoxazole-3-carboxamide] | 310 | 28.6
11 | O=C(N[C@H]1C[C@H]2CC[C@@H](C1)N2S(=O)(=O)N1CCC(NCc2c(F)cccc2F)CC1)c1cc(C2CC2)on1 [compound 924, 5-cyclopropyl-N-((1R,3r,5S)-8-((4-((2,6-difluorobenzyl)amino)piperidin-1-yl)sulfonyl)-8-azabicyclo[3.2.1]octan-3-yl)isoxazole-3-carboxamide] | 670 | 28.9
12 | CC(C)C1CN(S(=O)(=O)N2[C@@H]3CC[C@H]2C[C@@H](NC(=O)c2cc(C4CC4)on2)C3)CCN1 (stereo partly drawn) [compound 925, 5-cyclopropyl-N-((1R,3r,5S)-8-((3-isopropylpiperazin-1-yl)sulfonyl)-8-azabicyclo[3.2.1]octan-3-yl)isoxazole-3-carboxamide] | 340 | 29.9
13 | CN1CCC[C@@H](S(=O)(=O)N2[C@@H]3CC[C@H]2C[C@@H](NC(=O)c2cc(C4CC4)on2)C3)C1 [compound 926, 5-cyclopropyl-N-((1R,3R,5S)-8-(((R)-1-methylpiperidin-3-yl)sulfonyl)-8-azabicyclo[3.2.1]octan-3-yl)isoxazole-3-carboxamide] | 209 | 30
14 | C[C@H](NC1CCN(S(=O)(=O)N2[C@@H]3CC[C@H]2C[C@@H](NC(=O)c2cc(C4CC4)on2)C3)CC1)c1ccccc1 [compound 927, 5-cyclopropyl-N-((1R,3S,5S)-8-((4-(((S)-1-phenylethyl)amino)piperidin-1-yl)sulfonyl)-8-azabicyclo[3.2.1]octan-3-yl)isoxazole-3-carboxamide] | 403 | 30.9
15 | CC(C)NC1CCN(S(=O)(=O)N2[C@@H]3CC[C@H]2C[C@@H](NC(=O)c2cc(C4CC4)on2)C3)CC1 [compound 928, 5-cyclopropyl-N-((1R,3r,5S)-8-((4-(isopropylamino)piperidin-1-yl)sulfonyl)-8-azabicyclo[3.2.1]octan-3-yl)isoxazole-3-carboxamide] | 512 | 36.2
16 | NCc1ccc(S(=O)(=O)N2[C@@H]3CC[C@H]2C[C@@H](NC(=O)c2cc(C4CC4)on2)C3)cc1 [compound 929, N-((1R,3r,5S)-8-((4-(aminomethyl)phenyl)sulfonyl)-8-azabicyclo[3.2.1]octan-3-yl)-5-cyclopropylisoxazole-3-carboxamide] | ≥ 10000 | 36.8
17 | O=C(N[C@H]1C[C@H]2CC[C@@H](C1)N2S(=O)(=O)C[C@@H]1CCCN1)c1cc(C2CC2)on1 [compound 930, 5-cyclopropyl-N-((1R,3S,5S)-8-((((S)-pyrrolidin-2-yl)methyl)sulfonyl)-8-azabicyclo[3.2.1]octan-3-yl)isoxazole-3-carboxamide] | 351 | 37.1
18 | C[C@H](N)c1ccc(S(=O)(=O)N2[C@@H]3CC[C@H]2C[C@@H](NC(=O)c2cc(C4CC4)on2)C3)cc1 [compound 931, N-((1R,3S,5S)-8-((4-((S)-1-aminoethyl)phenyl)sulfonyl)-8-azabicyclo[3.2.1]octan-3-yl)-5-cyclopropylisoxazole-3-carboxamide] | 526 | 37.2
19 | C[C@H]1C[C@@H](NC(=O)c2cc(C3CC3)on2)CCN1S(=O)(=O)N1C[C@H]2CC[C@@H](C1)[C@@H]2N [compound 932, N-((2S,4S)-1-(((1R,5S,8R)-8-amino-3-azabicyclo[3.2.1]octan-3-yl)sulfonyl)-2-methylpiperidin-4-yl)-5-cyclopropylisoxazole-3-carboxamide] | 351 | 38.7
20 | CN1CC2CC(C1)N2S(=O)(=O)N1[C@@H]2CC[C@H]1C[C@@H](NC(=O)c1cc(C3CC3)on1)C2 [compound 933, 5-cyclopropyl-N-((1R,3r,5S)-8-((3-methyl-3,6-diazabicyclo[3.1.1]heptan-6-yl)sulfonyl)-8-azabicyclo[3.2.1]octan-3-yl)isoxazole-3-carboxamide] | 91.9 | 42.4
21 | C[C@@H](N)c1ccc(S(=O)(=O)N2[C@@H]3CC[C@H]2C[C@@H](NC(=O)c2cc(C4CC4)on2)C3)cc1 [compound 934, N-((1R,3R,5S)-8-((4-((R)-1-aminoethyl)phenyl)sulfonyl)-8-azabicyclo[3.2.1]octan-3-yl)-5-cyclopropylisoxazole-3-carboxamide] | 494 | 42.4
22 | C[C@H]1C[C@@H](NC(=O)c2cc(C3CC3)on2)CCN1S(=O)(=O)N1CCC(N(C)CCN2CCOCC2)CC1 [compound 935, 5-cyclopropyl-N-((2S,4S)-2-methyl-1-((4-(methyl(2-morpholinoethyl)amino)piperidin-1-yl)sulfonyl)piperidin-4-yl)isoxazole-3-carboxamide] | 414 | 43
23 | CN(CCCN1CCOCC1)C1CCN(S(=O)(=O)N2[C@@H]3CC[C@H]2C[C@@H](NC(=O)c2cc(C4CC4)on2)C3)CC1 [compound 936, 5-cyclopropyl-N-((1R,3r,5S)-8-((4-(methyl(3-morpholinopropyl)amino)piperidin-1-yl)sulfonyl)-8-azabicyclo[3.2.1]octan-3-yl)isoxazole-3-carboxamide] | 623 | 43.8
24 | CC[C@@H]1CNCCN1S(=O)(=O)N1CC[C@H](NC(=O)c2cc(C3CC3)on2)C[C@@H]1C [compound 937, 5-cyclopropyl-N-((2S,4S)-1-(((R)-2-ethylpiperazin-1-yl)sulfonyl)-2-methylpiperidin-4-yl)isoxazole-3-carboxamide] | 484 | 43.9
25 | N#Cc1ccc(CNC2CCN(S(=O)(=O)N3[C@@H]4CC[C@H]3C[C@@H](NC(=O)c3cc(C5CC5)on3)C4)CC2)cc1 [compound 938, N-((1R,3r,5S)-8-((4-((4-cyanobenzyl)amino)piperidin-1-yl)sulfonyl)-8-azabicyclo[3.2.1]octan-3-yl)-5-cyclopropylisoxazole-3-carboxamide] | 508 | 44.1
